Measurements as given in US20080293712A1, “Benzo[C][2,7]Naphtyridine Derivatives, Methods of Making Thereof and Methods of Use Thereof” (WYETH, priority 2007, published 2008).
Read-outs that look alike come from different tables or passages of the source.

Molecular target: T1, PDK-1 (Homo sapiens, UniProt O15530)
T1 sequence (O15530 1-556): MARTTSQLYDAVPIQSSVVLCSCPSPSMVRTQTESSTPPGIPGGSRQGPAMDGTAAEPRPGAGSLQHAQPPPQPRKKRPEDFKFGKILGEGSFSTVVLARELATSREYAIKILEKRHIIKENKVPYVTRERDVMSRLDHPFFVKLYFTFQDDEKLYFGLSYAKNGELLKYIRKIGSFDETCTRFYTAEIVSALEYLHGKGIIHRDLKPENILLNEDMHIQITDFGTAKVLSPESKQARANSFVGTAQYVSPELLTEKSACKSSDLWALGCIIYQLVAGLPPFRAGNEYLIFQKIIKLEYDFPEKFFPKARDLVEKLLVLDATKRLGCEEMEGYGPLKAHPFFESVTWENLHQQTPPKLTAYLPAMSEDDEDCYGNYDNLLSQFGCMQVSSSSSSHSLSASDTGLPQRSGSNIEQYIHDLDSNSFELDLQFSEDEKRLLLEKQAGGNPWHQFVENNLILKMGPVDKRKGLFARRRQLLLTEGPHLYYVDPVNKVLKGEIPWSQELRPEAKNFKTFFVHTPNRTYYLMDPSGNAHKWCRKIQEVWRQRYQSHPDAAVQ
Assay: PDK-1 kinase inhibition ELISA assay (phosphorylation of His6-tagged SGK1 S422D by PDK-1)
Assay type: biochemical

[1] = PDK-1 ELISA, Table 11, read-out: Average IC50

Method: In an in vitro assay, His6-tagged SGK1 with S422D mutation (formerly Upstate Biotech, now Millipore) on Thr256 is allowed to be phosphorylated by PDK-1 in the presence of a Benzo[c][2,7]naphthyridine Derivative. After 20 minutes, the reaction is quenched via the addition of urea. The His6-tagged SGK1 is then bound to 96 well Ni-NTA HisSorb plates (Quiagen, Inc., Valencia, Calif.) and phosphorylated SGK1 is quantitatively detected using rabbit derived anti-phospho SGK antibody (Cell Signaling Technology, Danvers, Mass.) as the primary antibody and horseradish peroxidase (HRP)—coupled anti-rabbit antibody (formerly Zymed, now Invitrogen, Carlsbad, Calif.) as the secondary antibody. HRP is then detected using a chemiluminescent substrate (Pierce Chemical Co., Woburn, Mass.).

For `COc1cc2ncc3c(N)nc(-c4cncc(Nc5ccccc5Nc5ccccc5)c4)cc3c2cc1OC` [Ib-183, N-[5-(4-amino-8,9-dimethoxybenzo[c][2,7]naphthyridin-2-yl)pyridin-3-yl]-N′-phenylbenzene-1,2-diamine], the IC50 [1] was 505 nM.
`COc1cc2ncc3c(N)nc(-c4cncc(OC[C@@H](N)CNCC5(c6ccccc6)CCOCC5)c4)cc3c2cc1OC` [Ib-104, (2S)-3-{[5-(4-amino-8,9-dimethoxybenzo[c][2,7]naphthyridin-2-yl)pyridin-3-yl]oxy}-N1-[(4-phenyltetrahydro-2H-pyran-4-yl)methyl]propane-1,2-diamine] was tested, and the IC50 [1] was 25 nM.
`COc1cc2ncc3c(N)nc(-c4cncc(OC[C@@H](N)COc5ccc(Cl)cn5)c4)cc3c2cc1OC` [Ib-154, 2-[5-({(2R)-2-amino-3-[(5-chloropyridin-2-yl)oxy]propyl}oxy)pyridin-3-yl]-8,9-dimethoxybenzo[c][2,7]naphthyridin-4-amine] gave an IC50 [1] of 4 nM.
`COc1cc2ncc3c(N)nc(N4CC[C@@H](N(C)C)C4)cc3c2cc1OC` [Ib-66, 2-[(3R)-3-(dimethylamino)pyrrolidin-1-yl]-8,9-dimethoxybenzo[c]-2,7-naphthyridin-4-amine] was tested, and the IC50 [1] was 4970 nM.
Work on `COc1cc2ncc3c(N)nc(-c4cncc(OC[C@@H](N)CNC(C)(C)C)c4)cc3c2cc1OC` [Ib-86, (2S)-3-{[5-(4-amino-8,9-dimethoxybenzo[c][2,7]naphthyridin-2-yl)pyridin-3-yl]oxy}-N1-tert-butylpropane-1,2-diamine] yielded an IC50 [1] of 77 nM.
In the case of `COc1cc2ncc3c(N)nc(-c4cncc(OC[C@@H](N)CNCC(F)(F)F)c4)cc3c2cc1OC` [Ib-109, (2S)-3-{[5-(4-amino-8,9-dimethoxybenzo[c][2,7]naphthyridin-2-yl)pyridin-3-yl]oxy}-N1-(2,2,2-trifluoroethyl)propane-1,2-diamine], the IC50 [1] is reported as 14 nM.
Compound `COc1cc2ncc3c(N)nc(-c4cncc(Nc5ccccc5)c4)cc3c2cc1OC` [Ib-203, 2-(5-anilinopyridin-3-yl)-8,9-dimethoxybenzo[c][2,7]naphthyridin-4-amine] has an IC50 [1] of 283 nM.
For `COc1cc2ncc3c(N)nc(-c4cncc(OC[C@@H](N)Cc5ccc(N)cc5)c4)cc3c2cc1OC` [Ib-19, 2-(5-{[(2S)-2-amino-3-(4-aminophenyl)propyl]oxy}pyridin-3-yl)-8,9-dimethoxybenzo[c]-2,7-naphthyridin-4-amine], the IC50 [1] was 81 nM.
`CC[C@@H](COc1cncc(-c2cc3c(cnc4cc(OC)c(OC)cc43)c(N)n2)c1)NC(=N)N` [Ib-251, (S)-1-(1-(5-(4-amino-8,9-dimethoxybenzo[c][2,7]naphthyridin-2-yl)pyridin-3-yloxy)butan-2-yl)guanidine] was tested, and the IC50 [1] was 32 nM.
Compound `COc1cc2ncc3c(N)nc(-c4cncc(OC[C@@H](N)CNCC5CCCCC5)c4)cc3c2cc1OC` [Ib-95, (2S)-3-{[5-(4-amino-8,9-dimethoxybenzo[c][2,7]naphthyridin-2-yl)pyridin-3-yl]oxy}-N1-(cyclohexylmethyl)propane-1,2-diamine] has an IC50 [1] of 53 nM.
With `COc1cc2ncc3c(N)nc(-c4cncc(OC[C@@H](N)Cn5ccnc5)c4)cc3c2cc1OC` [Ib-9, 2-(5-{[(2S)-2-amino-3-(1H-imidazol-1-yl)propyl]oxy}pyridin-3-yl)-8,9-dimethoxybenzo[c]-2,7-naphthyridin-4-amine] the IC50 [1] was 20 nM.
`COc1cc2ncc3c(N)nc(-c4cncc(Nc5ccc(C(N)=O)cc5)c4)cc3c2cc1OC` [Ib-206, 4-{[5-(4-amino-8,9-dimethoxybenzo[c][2,7]naphthyridin-2-yl)pyridin-3-yl]amino}benzamide] showed an IC50 [1] of 183 nM.
In the case of `COc1cc2c(cc1OCC1CCN(C)CC1)ncc1c(N)nc(-c3ccncc3)cc12` [Ia-22, 9-Methoxy-8-[(1-methylpiperidin-4-yl)methoxy]-2-pyridin-4-ylbenzo[c]-2,7-naphthyridin-4-amine], the IC50 [1] is reported as 6920 nM.
`COCCOc1cc2ncc3c(N)nc(N4CCC(CCO)CC4)cc3c2cc1OC` [Ia-51, 2-{1-[4-amino-9-methoxy-8-(2-methoxyethoxy)benzo[c]-2,7-naphthyridin-2-yl]piperidin-4-yl}ethanol] showed an IC50 [1] of 3720 nM.
Work on `COc1cc2ncc3c(N)nc(-c4cncc(OC[C@@H](N)CN(C)Cc5cccc(F)c5)c4)cc3c2cc1OC` [Ib-8, (2S)-3-{[5-(4-amino-8,9-dimethoxybenzo[c]-2,7-naphthyridin-2-yl)pyridin-3-yl]oxy}-N1-(3-fluorobenzyl)-N1-methylpropane-1,2-diamine] yielded an IC50 [1] of 5 nM.
For `COc1cc2ncc3c(N)nc(-c4cncc(OC[C@@H](N)COC5=NCCN5)c4)cc3c2cc1OC` [Ib-148, 2-(5-{[(2R)-2-amino-3-(4,5-dihydro-1H-imidazol-2-yloxy)propyl]oxy}pyridin-3-yl)-8,9-dimethoxybenzo[c][2,7]naphthyridin-4-amine], the IC50 [1] was 9 nM.
With `COc1cc2ncc3c(N)nc(-c4cncc(OC[C@@H](N)COc5nccs5)c4)cc3c2cc1OC` [Ib-156, 2-(5-{[(2R)-2-amino-3-(1,3-thiazol-2-yloxy)propyl]oxy}pyridin-3-yl)-8,9-dimethoxybenzo[c][2,7]naphthyridin-4-amine] the IC50 [1] was 3 nM.
`CCOc1cc2ncc3c(N)nc(-n4ccnc4)cc3c2cc1NC(=S)NCCN1CCOCC1` [Ia-26, N-[4-amino-8-ethoxy-2-(1H-imidazol-1-yl)benzo[c]-2,7-naphthyridin-9-yl]-N′-(2-morpholin-4-ylethyl)thiourea] gave an IC50 [1] of 549 nM.
`COc1cc2ncc3c(N)nc(-c4cncc(OC[C@@H](N)CNC(C)(C)c5ccncc5)c4)cc3c2cc1OC` [Ib-108, (2S)-3-{[5-(4-amino-8,9-dimethoxybenzo[c][2,7]naphthyridin-2-yl)pyridin-3-yl]oxy}-N1-(1-methyl-1-pyridin-4-ylethyl)propane-1,2-diamine] was tested, and the IC50 [1] was 7 nM.
Work on `COCCOc1cc2ncc3c(N)nc(N4CCCCC4C)cc3c2cc1OC` (centres unmarked) [Ia-43, 9-methoxy-8-(2-methoxyethoxy)-2-(2-methylpiperidin-1-yl)benzo[c]-2,7-naphthyridin-4-amine] yielded an IC50 [1] of 2450 nM.
`COc1cc2ncc3c(N)nc(-c4cncc(OC[C@@H](N)CO)c4)cc3c2cc1OC` [Ib-10, (2S)-2-amino-3-{[5-(4-amino-8,9-dimethoxybenzo[c]-2,7-naphthyridin-2-yl)pyridin-3-yl]oxy}propan-1-ol] gave an IC50 [1] of 6 nM.
Work on `COc1cc2ncc3c(N)nc(-c4cncc(OC[C@@H](N)CN5CCCC5)c4)cc3c2cc1OC` [Ib-110, 2-(5-{[(2S)-2-amino-3-pyrrolidin-1-ylpropyl]oxy}pyridin-3-yl)-8,9-dimethoxybenzo[c][2,7]naphthyridin-4-amine] yielded an IC50 [1] of 14 nM.
In the case of `COc1cc2ncc3c(N)nc(-c4cncc(C(=N)NC(C)C)c4)cc3c2cc1OC` [Ib-269, 5-(4-Amino-8,9-dimethoxybenzo[c][2,7]naphthyridin-2-yl)-N-isopropylnicotin-imidamide], the IC50 [1] is reported as 606 nM.
`COc1cc2ncc3c(N)nc(-c4cccc(C(=O)NCc5cccnc5)c4)cc3c2cc1OC` [Ib-248, 3-(4-amino-8,9-dimethoxybenzo[c][2,7]naphthyridin-2-yl)-N-(pyridin-3-ylmethyl)benzamide] showed an IC50 [1] of 1000 nM.
Work on `COc1ccc(Nc2cncc(-c3cc4c(cnc5cc(OC)c(OC)cc54)c(N)n3)c2)cc1` [Ib-177, 8,9-dimethoxy-2-{5-[(4-methoxyphenyl)amino]pyridin-3-yl}benzo[c][2,7]naphthyridin-4-amine] yielded an IC50 of 383 nM.
For `COCCOc1cc2ncc3c(N)nc(N(C)CC4OCCO4)cc3c2cc1OC` [Ia-44, N^2-(1,3-dioxolan-2-ylmethyl)-9-methoxy-8-(2-methoxyethoxy)-N^2-methylbenzo[c]-2,7-naphthyridine-2,4-diamine], the IC50 [1] was 2680 nM.
